# Results: patent US20240132445A1, “PHENOL DERIVATIVE AND APPLICATION THEREOF IN MEDICAMENTS” (priority 2021, published 2024)
# Read-outs that look alike come from different tables or passages of the source.
# Tests used:
# [1] = in vivo; type: in vivo, rats; conditions: both sexes, Sprague-Dawley, rat, in vivo, rats
# Method: (§2) SD rats, half male and half female, were fasted with water available for 12 h, and were administered via intravenous injection at an administration volume of 10 mL/kg. Then the anesthesia induction time (the time period from drug administration to disappearance of the righting reflex), the anesthesia maintenance time (the time period from disappearance of the righting reflex to recovery of the righting reflex and revival) and the anesthesia recovery time (the time period from revival to complete recovery) were recorded. Indicators including the median effective dose (ED50), median lethal dose (LD50), therapeutic index (TI, i.e. LD50/ED50), anesthesia induction time, anesthesia maintenance time and maximum tolerated dose were used to evaluate the effect and safety of anesthesia.
# [2] = test system: SD rats; experiment: animal or person; type: in vivo; conditions: rats
# Method: as §2
# [3] = test system: Beagle dogs; experiment: Hemodynamic effect study in conscious Beagle dogs (telemetry); type: in vivo; conditions: iv
# Method: The experiment used an emka PACK 4G telemetry system to detect the effects of intravenous injection of control group 3 and compound 20 on electrocardiogram, blood pressure and body temperature in conscious Beagle dogs, providing reference information for evaluating the safety of clinical use.
# Four Beagle dogs were subjected to crossover administration, with a vehicle control (5% DMSO+10% solutol+85% Saline), control group 3 (2 mg/kg), compound 20 (0.5 mg/kg) and compound 20 (1 mg/kg) for each intravenous injection, with an administration volume of 2 mL/kg. Observations were respectively conducted before administration and within 1 h after administration on the day of administration. Anal temperature was measured before administration and at 30 min, 1 h, 2 h and 3 h after administration during each administration period; and electrocardiogram parameters were continuously collected from 0.5 h before administration to 3 h after administration during each administration period. Blood pressure was collected at 15 min after collection was started, and was collected at 2 min, 5 min, 10 min, 20 min, 30 min, 1 h, 2 h and 3 h after administration. The electrocardiogram, blood pressure data, body temperature, and clinical observation results on the day of administration at various time points including before administration (at 30 min after collection was started) and at 2 min, 5 min, 10 min, 20 min, 30 min, 1 h, 2 h and 3 h after administration were analysed and evaluated.
# [4] = Pharmacokinetic study in Beagle dogs; type: in vivo; conditions: male, dog, plasma, iv, 0.5 mg/kg
# Method: Six male Beagle dogs (6-10 kg) were randomized into 2 groups (n=3): control group 3 and compound 20. The […] were administered via intravenous injection at 0.5 mg/kg (control group 3) and 0.5 mg/kg (compound 20), respectively, with an administration volume of 1 mL/kg and a vehicle of 5% DMSO+10% solutol (HS15)+85% Saline. Blood samples were taken before administration and at 2 min, 5 min, 10 min, 20 min, 30 min, 1 h, 1.5 h, 2 h and 3 h after administration. Plasma samples were taken by centrifugation, and stored in a −80° C. refrigerator until LC-MS analysis to be tested. After sample processing, quantitative analysis of substances in plasma was conducted using LCMS/MS to detect the concentration of prototype compounds in the plasma. The plasma concentration/time curve obtained in this way was used to calculate pharmacokinetic parameters by a validated pharmacokinetic computer program.
# [5] = Pharmacokinetic study in rats; type: in vivo, SD rats; conditions: male, Sprague-Dawley, rat, plasma, iv, 1 mg/kg
# Method: Twelve male SD rats (200-300 g) were randomized into 2 groups (n=6): control group 3 and compound 20. The rats were administered via intravenous injection at 1 mg/kg (control group 3) and 1 mg/kg (compound 20), respectively, with an administration volume of 5 mL/kg and a vehicle of 5% DMSO+10% solutol (HS15)+85% Saline. Blood samples were taken before administration and at 2 min, 4 min, 8 min, 12 min, 15 min, 30 min, 1 h, 1.5 h and 2 h after administration. Plasma samples were taken by centrifugation, and stored in a −80° C. refrigerator until LC-MS analysis to be tested. After sample processing, quantitative analysis of substances in plasma was conducted using LCMS/MS to detect the concentration of prototype compounds in the plasma. The plasma concentration/time curve obtained in this way was used to calculate pharmacokinetic parameters by a validated pharmacokinetic computer program.
# [6] = biological target: GABAA (α1β2γ2) receptor (Homo sapiens (Human), UniProt P14867+P18507+P47870); experiment: Whole-cell patch-clamp of GABAA (α1β2γ2) receptor current in stably expressing HEK293 cells; type: cell-based; conditions: allosteric regulation
# GABAA (α1β2γ2) receptor, sequence (P14867 28-456 limits assumed): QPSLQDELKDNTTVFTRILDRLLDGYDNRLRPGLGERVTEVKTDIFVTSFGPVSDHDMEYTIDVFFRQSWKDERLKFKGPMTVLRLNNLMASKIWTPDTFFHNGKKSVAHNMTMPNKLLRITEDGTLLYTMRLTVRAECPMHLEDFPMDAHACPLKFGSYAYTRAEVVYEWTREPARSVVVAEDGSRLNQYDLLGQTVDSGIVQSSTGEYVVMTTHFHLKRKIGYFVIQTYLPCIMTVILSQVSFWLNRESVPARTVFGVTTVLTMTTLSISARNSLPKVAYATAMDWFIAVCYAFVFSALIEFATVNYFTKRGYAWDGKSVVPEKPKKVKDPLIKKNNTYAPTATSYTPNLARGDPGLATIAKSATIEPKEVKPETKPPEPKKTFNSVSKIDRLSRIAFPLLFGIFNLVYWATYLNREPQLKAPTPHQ
# GABAA (α1β2γ2) receptor, sequence (P47870 26-512 limits assumed): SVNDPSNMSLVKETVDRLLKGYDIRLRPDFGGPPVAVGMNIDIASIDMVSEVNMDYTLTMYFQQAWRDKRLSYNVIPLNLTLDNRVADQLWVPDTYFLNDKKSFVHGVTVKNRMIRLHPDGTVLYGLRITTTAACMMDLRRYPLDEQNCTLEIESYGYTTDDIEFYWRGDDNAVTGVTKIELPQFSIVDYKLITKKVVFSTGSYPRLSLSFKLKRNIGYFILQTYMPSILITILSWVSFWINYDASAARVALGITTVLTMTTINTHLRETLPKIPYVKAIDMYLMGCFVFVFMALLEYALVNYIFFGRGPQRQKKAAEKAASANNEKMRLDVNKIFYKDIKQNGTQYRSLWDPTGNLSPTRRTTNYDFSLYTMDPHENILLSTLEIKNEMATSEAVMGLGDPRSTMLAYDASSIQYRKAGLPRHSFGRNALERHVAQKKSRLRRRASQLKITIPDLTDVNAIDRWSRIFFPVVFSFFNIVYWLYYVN
# GABAA (α1β2γ2) receptor, sequence (P18507 40-475 limits assumed): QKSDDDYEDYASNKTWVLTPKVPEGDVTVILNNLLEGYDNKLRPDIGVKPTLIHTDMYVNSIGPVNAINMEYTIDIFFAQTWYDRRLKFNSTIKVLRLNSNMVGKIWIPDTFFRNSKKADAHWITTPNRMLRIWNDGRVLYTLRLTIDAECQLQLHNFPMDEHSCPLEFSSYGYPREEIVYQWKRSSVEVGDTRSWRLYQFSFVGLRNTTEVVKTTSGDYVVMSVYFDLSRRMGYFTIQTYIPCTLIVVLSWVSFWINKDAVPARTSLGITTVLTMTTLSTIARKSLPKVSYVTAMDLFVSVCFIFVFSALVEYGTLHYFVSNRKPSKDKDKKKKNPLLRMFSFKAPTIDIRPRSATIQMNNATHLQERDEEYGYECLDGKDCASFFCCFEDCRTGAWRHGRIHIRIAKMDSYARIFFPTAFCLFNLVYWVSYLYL
# From the text: Gamma-aminobutyric acid (GABA) was an important inhibitory amino acid neurotransmitter in the central nervous system, and functioned by binding to GABA receptors. The GABA receptors were divided into three subtypes: GABAA, GABAB and GABAC, among which the GABAA receptor was the most important. The GABAA receptor was an anion-selective ion channel that could enhance chloride ion permeability and thus reduce neuronal excitability. The GABAA receptor was involved in regulating general anesthesia and was also closely related to diseases such as neurological and psychiatric disorders, e.g., depression, insomnia, anxiety and epilepsy. […]
# HEK293 cell lines stably expressing the GABAA (α1β2γ2) receptor were used. […] The voltage stimulus of GABA receptor current recorded by a whole-cell patch-clamp technique was as follows: when whole-cell sealing was formed, the cell membrane voltage was clamped at −70 mV. The peak value of current was recorded after sequentially spraying test compounds from low concentration to high concentration and 100 μM GABA onto the cell surface in a Gap-free mode. […] Then slow capacitance compensation was conducted, and the membrane capacitance (pF) and series resistance were recorded. […] Multiple cells were independently and repeatedly detected. […]
# [7] = in vivo; conditions: both, ICR, mouse, in vivo, iv
# Method: (§1) SPF-grade ICR mice, each weighing 18-22 g, half male and half female, were used. A well-established mouse anesthesia model was used to study the general anesthesia effect of the compound of the present invention. The compounds were formulated with solvents of 10% DMSO, 15% solutol (HS15) and 75% saline to the desired concentration, for further use. After adapting to the experimental environment, the experimental animals were fasted with water available for 12 h, and were administered via intravenous injection at an administration volume of 10 mL/kg. Then the anesthesia induction time (the time period from drug administration to disappearance of the righting reflex) and the anesthesia maintenance time (the time period from disappearance of the righting reflex to recovery of the righting reflex) were recorded. Indicators including the median effective dose (ED50), median lethal dose (LD50), therapeutic index (TI, i.e. LD50/ED50), anesthesia induction time, anesthesia maintenance time and maximum tolerated dose were used to evaluate the effect and safety of anesthesia.
# [8] = test system: ICR mice; experiment: animal or person
# Method: as §1
smiles,measurement,setting,value
"CCS(=O)(=O)[C@@H](C)c1cccc([C@H](C)C2CC2)c1O [Compound 20, 2-((R)-1-cyclopropylethyl)-6-((S)-1-(ethylsulfonyl)ethyl)phenol]",LD50,"[1]; intravenous injection, read-out: LD50",3.2 mg/kg
same,MTD,"[1]; iv, maximum tolerated dose, read-out: MTD",2.2 mg/kg
same,ED50,"[2]; Rattus norvegicus, intravenous injection, loss of righting reflex, read-out: ED50",0.5 mg/kg
same,TI,[2]; LD50/ED50,6.4
same,Anesthesia induction time,"[2]; iv, administration to disappearance of righting reflex",10 s
same,Anesthesia maintenance time,"[2]; iv, disappearance to recovery of righting reflex",624 s
same,"effect on the heart rate, blood pressure and body temperature",[3]; 0.5 and 1 mg/kg,little effect
same,change in heart rate after administration,"[3]; control group 3 2 mg/kg, compound 20 0.5 and 1 mg/kg, within 1 h, recovery after 1 h",slow down in heart rate
same,AUC(0-t),[4],128 ng·h/mL
same,half-life,[4],47.4 min
same,AUC(0-t),[5],196 ng·h/mL
same,half-life,[5],19.8 min
same,EC50,"[6]; HEK293, -70 mV, n=3, read-out: EC50",1.56 µM
same,EC50,"[6]; HEK293, text restatement, read-out: semi-activated concentration (EC50)",1.56 µM
same,LD50,[7],3.5 mg/kg
same,MTD,[7],1.8 mg/kg
same,ED50,"[8]; Mus musculus, iv",0.6 mg/kg
same,TI,"[8]; mice, LD50/ED50",5.8
same,Anesthesia induction time,"[8]; mice, iv, administration to disappearance of righting reflex",2 s
same,Anesthesia maintenance time,"[8]; mice, iv, disappearance to recovery of righting reflex",573 s
